# Experimental data reported in the NIST ThermoML archive (doi:10.1016/j.fluid.2009.01.011).
# Numbers after ± are expanded uncertainties.
# Assay: activity coefficient (dimensionless); of the first substance listed, at infinite dilution; xn = mol fraction of the nth substance listed
# Settings: Liquid, Chromatography, x1 = 0
SMILES,activity coefficient (308.15 K),activity coefficient (318.15 K),activity coefficient (328.15 K),activity coefficient (338.15 K),activity coefficient (348.15 K),activity coefficient (358.15 K),activity coefficient (368.15 K),activity coefficient (298.15 K)
"Cc1ccccc1C [1,2-dimethylbenzene] + CCCC[N+]1(C)CCCC1.O=S(=O)([O-])C(F)(F)F",2.91 ± 0.13,2.93 ± 0.13,2.95 ± 0.13,2.97 ± 0.13,2.99 ± 0.13,3.01 ± 0.13,3.03 ± 0.13,–
CCCCO [butan-1-ol] + CCCC[N+]1(C)CCCC1.O=S(=O)([O-])C(F)(F)F,–,–,1.49 ± 0.06,1.42 ± 0.06,1.35 ± 0.05,1.29 ± 0.05,1.24 ± 0.05,–
C=CCCCCCC [oct-1-ene] + CCCC[N+]1(C)CCCC1.O=S(=O)([O-])C(F)(F)F,38.4 ± 1.7,36.2 ± 1.6,34.3 ± 1.5,32.7 ± 1.5,31.2 ± 1.4,29.8 ± 1.3,28.6 ± 1.3,40.9 ± 1.8
C=CCCCCC [1-heptene] + CCCC[N+]1(C)CCCC1.O=S(=O)([O-])C(F)(F)F,27.5 ± 1.2,26.1 ± 1.2,24.8 ± 1.1,23.6 ± 1,22.6 ± 1,21.6 ± 1,20.8 ± 0.9,29 ± 1.3
CO [methanol] + CCCC[N+]1(C)CCCC1.O=S(=O)([O-])C(F)(F)F,0.684 ± 0.029,0.655 ± 0.029,0.628 ± 0.029,0.604 ± 0.028,0.581 ± 0.028,0.563 ± 0.028,0.543 ± 0.028,0.717 ± 0.03
COC(C)(C)C [2-methoxy-2-methylpropane] + CCCC[N+]1(C)CCCC1.O=S(=O)([O-])C(F)(F)F,5.65 ± 0.25,5.64 ± 0.25,5.63 ± 0.25,5.62 ± 0.25,5.6 ± 0.25,5.59 ± 0.25,5.58 ± 0.25,5.67 ± 0.25
CCCCCCCC [octane] + CCCC[N+]1(C)CCCC1.O=S(=O)([O-])C(F)(F)F,86.9 ± 3.9,79.4 ± 3.5,73.1 ± 3.3,67.2 ± 3,62.9 ± 2.8,58.4 ± 2.6,54.4 ± 2.4,95.2 ± 4.3
CCc1ccccc1 [ethylbenzene] + CCCC[N+]1(C)CCCC1.O=S(=O)([O-])C(F)(F)F,3.45 ± 0.15,3.46 ± 0.15,3.48 ± 0.15,3.5 ± 0.15,3.51 ± 0.15,3.53 ± 0.16,3.54 ± 0.16,3.43 ± 0.15
CCCCC [pentane] + CCCC[N+]1(C)CCCC1.O=S(=O)([O-])C(F)(F)F,46.1 ± 2.1,40.3 ± 1.8,35.9 ± 1.6,32.2 ± 1.4,28.9 ± 1.3,26.1 ± 1.2,–,52.1 ± 2.3
C#CCCCCC [1-heptyne] + CCCC[N+]1(C)CCCC1.O=S(=O)([O-])C(F)(F)F,5.3 ± 0.23,5.39 ± 0.24,5.47 ± 0.24,5.56 ± 0.25,5.64 ± 0.25,5.7 ± 0.25,5.78 ± 0.25,5.21 ± 0.23
"Cc1ccc(C)cc1 [1,4-dimethylbenzene] + CCCC[N+]1(C)CCCC1.O=S(=O)([O-])C(F)(F)F",3.32 ± 0.15,3.35 ± 0.15,3.38 ± 0.15,3.4 ± 0.15,3.43 ± 0.15,3.45 ± 0.15,3.48 ± 0.15,–
CCCCCCCCC [nonane] + CCCC[N+]1(C)CCCC1.O=S(=O)([O-])C(F)(F)F,122 ± 5,111 ± 5,100 ± 5,92.4 ± 4.1,85.2 ± 3.8,78.9 ± 3.5,73.3 ± 3.3,135 ± 6
CCCO [propan-1-ol] + CCCC[N+]1(C)CCCC1.O=S(=O)([O-])C(F)(F)F,1.26 ± 0.05,1.2 ± 0.05,1.14 ± 0.04,1.08 ± 0.04,1.04 ± 0.04,0.995 ± 0.035,0.953 ± 0.034,–
CCCCCCC [heptane] + CCCC[N+]1(C)CCCC1.O=S(=O)([O-])C(F)(F)F,64.7 ± 2.9,59.3 ± 2.6,54.2 ± 2.4,50.4 ± 2.2,46.7 ± 2.1,43.3 ± 1.9,40.8 ± 1.8,71.5 ± 3.2
CCCCCCCCCC [decane] + CCCC[N+]1(C)CCCC1.O=S(=O)([O-])C(F)(F)F,174 ± 8,157 ± 7,143 ± 6,130 ± 6,120 ± 5,110 ± 5,101 ± 5,195 ± 9
O [water] + CCCC[N+]1(C)CCCC1.O=S(=O)([O-])C(F)(F)F,–,0.865 ± 0.032,0.83 ± 0.032,0.794 ± 0.031,0.765 ± 0.031,0.739 ± 0.03,0.712 ± 0.03,–
CCCCCC [hexane] + CCCC[N+]1(C)CCCC1.O=S(=O)([O-])C(F)(F)F,50.6 ± 2.3,46.4 ± 2.1,42.2 ± 1.9,38.8 ± 1.7,35.8 ± 1.6,33.3 ± 1.5,31.3 ± 1.4,55.8 ± 2.5
C1CCCCC1 [cyclohexane] + CCCC[N+]1(C)CCCC1.O=S(=O)([O-])C(F)(F)F,23.4 ± 1,21.4 ± 1,19.7 ± 0.9,18.1 ± 0.8,16.8 ± 0.7,15.6 ± 0.7,14.6 ± 0.6,25.7 ± 1.1
c1ccsc1 [thiophene] + CCCC[N+]1(C)CCCC1.O=S(=O)([O-])C(F)(F)F,1.04 ± 0.04,1.06 ± 0.04,1.08 ± 0.04,1.1 ± 0.04,1.11 ± 0.04,1.13 ± 0.04,1.14 ± 0.04,1.02 ± 0.04
C1CCCCCC1 [cycloheptane] + CCCC[N+]1(C)CCCC1.O=S(=O)([O-])C(F)(F)F,27 ± 1.2,24.9 ± 1.1,23.1 ± 1,21.6 ± 1,20.1 ± 0.9,18.9 ± 0.8,17.9 ± 0.8,29.3 ± 1.3
